Results published in patent publication US7597904B2, “Metalloproteinase inhibitory agent” (Nestec S.A., priority 2004, dated 2009).
pIC50: −log10 of the molar value. Residues, ends and D or L forms follow the SMILES beside them.

Tests used:
ACE = target: T1, ACE (Homo sapiens, UniProt P12821); assay: Angiotensin-converting-enzyme inhibitory test, FAPGG substrate; type: biochemical; settings: substrate N-[3-2(furyl)acryloyl]L-phenylalanylglycylglycine; read-out: IC50 for the inhibition of ACE
T1 construct: purchased
T1 sequence (P12821 30-1306, species assumed): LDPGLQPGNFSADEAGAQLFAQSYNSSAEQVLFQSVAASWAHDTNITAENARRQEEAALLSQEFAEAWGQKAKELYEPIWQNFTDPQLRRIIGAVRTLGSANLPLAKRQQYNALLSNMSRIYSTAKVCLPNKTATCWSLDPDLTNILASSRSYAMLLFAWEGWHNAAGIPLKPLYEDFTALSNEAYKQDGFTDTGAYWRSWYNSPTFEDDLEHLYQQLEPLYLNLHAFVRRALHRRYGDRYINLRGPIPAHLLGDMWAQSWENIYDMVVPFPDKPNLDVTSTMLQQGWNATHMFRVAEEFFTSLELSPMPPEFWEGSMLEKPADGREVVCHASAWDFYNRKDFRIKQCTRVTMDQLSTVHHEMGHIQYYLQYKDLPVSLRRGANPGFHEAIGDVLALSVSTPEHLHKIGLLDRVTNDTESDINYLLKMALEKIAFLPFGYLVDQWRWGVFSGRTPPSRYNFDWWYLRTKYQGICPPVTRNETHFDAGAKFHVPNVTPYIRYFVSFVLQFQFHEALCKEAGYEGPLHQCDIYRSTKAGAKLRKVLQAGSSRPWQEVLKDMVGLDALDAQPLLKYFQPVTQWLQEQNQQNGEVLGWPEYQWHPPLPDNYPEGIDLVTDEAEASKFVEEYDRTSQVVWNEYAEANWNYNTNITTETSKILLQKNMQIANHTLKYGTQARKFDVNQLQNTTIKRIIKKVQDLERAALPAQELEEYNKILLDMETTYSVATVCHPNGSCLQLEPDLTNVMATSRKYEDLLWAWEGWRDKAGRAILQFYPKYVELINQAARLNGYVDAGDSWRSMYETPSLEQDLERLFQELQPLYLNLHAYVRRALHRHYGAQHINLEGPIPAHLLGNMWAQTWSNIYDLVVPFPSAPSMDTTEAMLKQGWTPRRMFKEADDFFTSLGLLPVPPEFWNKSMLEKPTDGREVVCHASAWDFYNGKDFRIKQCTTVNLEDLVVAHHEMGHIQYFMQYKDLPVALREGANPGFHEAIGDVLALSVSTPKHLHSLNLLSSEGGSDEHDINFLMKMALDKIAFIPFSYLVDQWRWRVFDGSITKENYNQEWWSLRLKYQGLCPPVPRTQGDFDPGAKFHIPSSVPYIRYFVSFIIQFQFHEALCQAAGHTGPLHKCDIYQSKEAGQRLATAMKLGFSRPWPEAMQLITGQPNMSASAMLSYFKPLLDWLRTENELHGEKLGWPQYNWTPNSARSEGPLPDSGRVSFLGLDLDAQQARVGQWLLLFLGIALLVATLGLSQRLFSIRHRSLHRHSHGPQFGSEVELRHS
Protocol: Angiotensin-Converting-Enzyme Inhibitory Test
This procedure is a rapid spectrophotometric method utilizing the synthetic tripeptide substrate N-[3-(2-furyl)acryloil]-L-phenylalanylglycylglycine (FAPGG). Km-value: 0.3 mM.
FAPGG was hydrolysed to furylacryloylphenylalanine (FAP) and glycylgylcine.
The ACE reagent and the ACE Calibrator were reconstituted according to the manufacturer's recommendations.
The assay was performed in quartz cuvets. 0.05 ml ACE Reagent Solution, 0.05 ml casein hydrolysate and 0.05 ml ACE calibrator were mixed and incubated at 37° C. for 10 minutes.
The absorbance at 340 nm was measured as a function of time.
The ACE activity in the sample was determined by comparing the sample reaction rate to that obtained with the ACE calibrator. The results are expressed as percentage with respect to the control.

MMP-7 = target: T2, MMP-7 (Homo sapiens, UniProt P09237); assay: Matrix metalloproteinase inhibitory test, DQ-gelatin substrate; type: biochemical; settings: flourescein conjugated gelatin; read-out: IC50 for the inhibition of MMP-7
T2 sequence (P09237 95-267): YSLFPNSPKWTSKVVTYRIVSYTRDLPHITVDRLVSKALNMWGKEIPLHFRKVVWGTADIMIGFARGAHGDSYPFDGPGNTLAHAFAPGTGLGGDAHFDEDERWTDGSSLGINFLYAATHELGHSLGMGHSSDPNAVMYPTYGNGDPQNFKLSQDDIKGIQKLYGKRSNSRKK
Protocol: (§1) Matrix Metalloproteinase Inhibitory Test
(§2) The assay was performed in microtiter plates. In each single well 1 μl enzyme, the inhibitor at the desired concentration and finally 5 μl substrate were added to PBS buffer (pH 7.0-7.5), final volume: 200 μl. The reaction mixture was incubated at 37° C. for 2 hours. The increase in fluorescence was continuously recorded, exciting at 485 nm and reading the emission at 530 nm, with a gain of 40.
(§3) Inhibitors:— o-phenantroline: 9.9 mg in 25 μl DMF (dimethylformamide→add 1 μl (final concentration: 10 mM) • synthetic inhibitors at different concentrations
(§4) Substrate: DQ-gelatin: 1 mg/ml in PBS→add 5 μl to the reaction (reaction volume: 200 μl) (final concentration: […])
(§5) Enzymes: • MMP-7: stock solution: 1 U/μl • MMP-2: stock solution: 0.05 μg/μl • MMP-9: stock solution: 0.05 μg/μl Results & Discussion Generation of the Peptide Library with Lb. helveticus CNCM I-2864 . . .

MMP-2 = target: T3, MMP-2 (Homo sapiens, UniProt P08253); assay: as above; type: biochemical; settings: flourescein conjugated gelatin; read-out: IC50 for the inhibition of MMP-2
T3 sequence (P08253 110-660): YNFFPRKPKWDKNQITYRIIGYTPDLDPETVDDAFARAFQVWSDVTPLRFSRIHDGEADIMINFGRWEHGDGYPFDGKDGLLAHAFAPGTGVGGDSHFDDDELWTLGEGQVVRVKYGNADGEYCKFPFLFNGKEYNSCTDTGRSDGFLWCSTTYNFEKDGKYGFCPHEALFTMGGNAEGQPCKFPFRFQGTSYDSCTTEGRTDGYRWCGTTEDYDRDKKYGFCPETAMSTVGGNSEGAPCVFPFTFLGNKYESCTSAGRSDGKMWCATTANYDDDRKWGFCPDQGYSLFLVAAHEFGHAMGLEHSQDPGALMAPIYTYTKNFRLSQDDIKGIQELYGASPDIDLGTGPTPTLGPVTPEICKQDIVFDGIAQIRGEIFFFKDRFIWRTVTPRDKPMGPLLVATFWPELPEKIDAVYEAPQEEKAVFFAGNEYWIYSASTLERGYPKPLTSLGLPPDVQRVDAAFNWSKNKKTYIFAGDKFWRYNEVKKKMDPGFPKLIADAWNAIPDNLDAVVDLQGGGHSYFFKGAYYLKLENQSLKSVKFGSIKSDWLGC
Protocol: as §1, §2, §3, §4, §5

MMP-9 = MMP-9 (Homo sapiens, UniProt P14780); assay: as above; type: biochemical; settings: flourescein conjugated gelatin; read-out: IC50 for the inhibition of MMP-9
Sequence of MMP-9 (P14780 94-707, species assumed): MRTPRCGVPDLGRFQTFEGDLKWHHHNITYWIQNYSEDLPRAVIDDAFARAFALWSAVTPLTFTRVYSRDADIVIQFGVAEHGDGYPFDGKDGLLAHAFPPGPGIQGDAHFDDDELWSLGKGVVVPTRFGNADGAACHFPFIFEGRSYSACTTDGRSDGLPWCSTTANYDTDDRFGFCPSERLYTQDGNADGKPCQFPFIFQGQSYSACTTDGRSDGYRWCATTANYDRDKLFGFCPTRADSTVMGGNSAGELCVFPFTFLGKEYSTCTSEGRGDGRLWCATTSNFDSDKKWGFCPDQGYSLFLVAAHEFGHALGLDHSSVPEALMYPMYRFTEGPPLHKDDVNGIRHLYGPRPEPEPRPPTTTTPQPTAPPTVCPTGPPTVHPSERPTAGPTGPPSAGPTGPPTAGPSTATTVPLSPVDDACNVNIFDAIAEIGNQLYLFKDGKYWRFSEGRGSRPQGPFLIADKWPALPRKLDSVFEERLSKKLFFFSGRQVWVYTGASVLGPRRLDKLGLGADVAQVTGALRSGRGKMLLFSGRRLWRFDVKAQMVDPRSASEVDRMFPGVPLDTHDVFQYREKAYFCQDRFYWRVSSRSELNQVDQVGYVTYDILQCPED
Protocol: as §1, §2, §3, §4, §5

HT-29 cells = assay: Proliferation of HT-29 cells with synthetic peptides (percentage of counts); type: cell-based, human; settings: for antiproliferative activity of synthetic peptides (in words): HT-29 cells
Protocol: Undifferentiated cells (passages 45-78) were maintained in glucose-containing DMEM supplemented with 10% FCS at 37° C. in a 5% CO2/air incubator. Culture medium was changed every two days until the cell monolayers reached 50% confluence. For stimulation assays, HT-29 cells were plated at 1.2*10^4 cells/well in 96-well flat-bottom plates. After incubation for 4 days, the amount of cells present in the wells before incubation with the samples was assessed adding neutral red solution in 4 wells and incubating the plate for 45 min. The HT-29 cells were then washed twice with serum-free media (inclusive the wells with neutral red solution). The wells colored with neutral red remained from now on free of any media.
Synthetic peptides that were tested on HT-29 cell line confirmed their antiproliferative potential.
The same experiment was performed with a shorter version of the former mentioned peptide: ENLLRFFVAPFPEVFG (SEQ ID NO:22) (αS1 33-48).

MMPs = settings: background statement; cited from earlier work
MMP = assay: Matrix metalloproteinase inhibitory test, positive control; type: biochemical; settings: 10 mM concentration; data not shown
Protocol: as §1, §2, §3

| pIC50 (ACE) | pIC50 (MMP-7) | pIC50 (MMP-2) | pIC50 (MMP-9) | Structure (SMILES) | other results |
| --- | --- | --- | --- | --- | --- |
| 3.60 | 3.56 | 3.70 | 3.52 | CC(C)C[C@H](NC(=O)[C@H](CC(C)C)NC(=O)[C@@H]1CCCN1C(=O)[C@H](CC(C)C)NC(=O)[C@@H]1CCCN1C(=O)[C@H](CC(C)C)NC(=O)[C@H](Cc1c[nH]cn1)NC(=O)[C@H](CC(C)C)NC(=O)[C@H](CC(N)=O)NC(=O)[C@@H](N)CCC(=O)O)C(=O)O [ENLHLPLPLL] (H-ENLHLPLPLL-OH; N-terminus and C-terminus assumed) | – |
| 3.60 | 3.00 | 3.37 | 3.82 | CC(C)C[C@H](NC(=O)[C@H](CC(C)C)NC(=O)[C@H](CC(N)=O)NC(=O)[C@@H](N)CCC(=O)O)C(=O)N[C@@H](CCCNC(=N)N)C(=O)N[C@@H](Cc1ccccc1)C(=O)N[C@@H](Cc1ccccc1)C(=O)N[C@H](C(=O)N[C@@H](C)C(=O)N1CCC[C@H]1C(=O)N[C@@H](Cc1ccccc1)C(=O)N1CCC[C@H]1C(=O)N[C@@H](CCC(=O)O)C(=O)N[C@H](C(=O)N[C@@H](Cc1ccccc1)C(=O)NCC(=O)O)C(C)C)C(C)C [ENLLRFFVAPFPEVFG] (H-ENLLRFFVAPFPEVFG-OH; N-terminus and C-terminus assumed) | antiproliferative activity of synthetic peptides (in words) (HT-29 cells): antiproliferative pattern similar to the one observed for LNENLLRFFVAPFPEVFG |
| 3.19 | 3.52 | 3.30 | 3.40 | CC(C)[C@H](NC(=O)[C@H](CCC(=O)O)NC(=O)[C@@H]1CCCN1C(=O)[C@H](Cc1ccccc1)NC(=O)[C@@H]1CCCN1C(=O)[C@H](C)NC(=O)[C@@H](NC(=O)[C@@H](N)Cc1ccccc1)C(C)C)C(=O)N[C@@H](Cc1ccccc1)C(=O)NCC(=O)O [FVAPFPEVFG] (H-FVAPFPEVFG-OH; N-terminus and C-terminus assumed) | – |
| 3.55 | 3.52 | 3.60 | 3.82 | CC(C)C[C@H](NC(=O)[C@H](CC(C)C)NC(=O)[C@H](CC(N)=O)NC(=O)[C@H](CCC(=O)O)NC(=O)[C@H](CC(N)=O)NC(=O)[C@@H](N)CC(C)C)C(=O)N[C@@H](CCCNC(=N)N)C(=O)N[C@@H](Cc1ccccc1)C(=O)N[C@@H](Cc1ccccc1)C(=O)N[C@H](C(=O)N[C@@H](C)C(=O)N1CCC[C@H]1C(=O)N[C@@H](Cc1ccccc1)C(=O)N1CCC[C@H]1C(=O)N[C@@H](CCC(=O)O)C(=O)N[C@H](C(=O)N[C@@H](Cc1ccccc1)C(=O)NCC(=O)O)C(C)C)C(C)C [LNENLLRFFVAPFPEVFG] (H-LNENLLRFFVAPFPEVFG-OH; N-terminus and C-terminus assumed) | antiproliferative activity of synthetic peptides (in words) (HT-29 cells): strongly inhibited proliferation; % prolif (percentage of counts with respect to the control) (HT-29 cells; peptide concentration 2 μM): 56%; % prolif (percentage of counts with respect to the control) (HT-29 cells; peptide concentration 4 μM): 44%; % prolif (percentage of counts with respect to the control) (HT-29 cells; peptide concentration 8 μM): 160%; % prolif (percentage of counts with respect to the control) (HT-29 cells; peptide concentration 17 μM): 114%; % prolif (percentage of counts with respect to the control) (HT-29 cells; peptide concentration 33 μM): 131%; % prolif (percentage of counts with respect to the control) (HT-29 cells; peptide concentration 66 μM): 119%; % prolif (percentage of counts with respect to the control) (HT-29 cells; peptide concentration 133 μM): 135% |
| 4.26 | 3.07 | 3.56 | 4.30 | CC(C)C[C@H](NC(=O)[C@H](CC(C)C)NC(=O)[C@H](CC(N)=O)NC(=O)[C@H](CCC(=O)O)NC(=O)[C@@H](N)CC(N)=O)C(=O)N[C@@H](CCCNC(=N)N)C(=O)N[C@@H](Cc1ccccc1)C(=O)N[C@@H](Cc1ccccc1)C(=O)N[C@H](C(=O)N[C@@H](C)C(=O)N1CCC[C@H]1C(=O)N[C@@H](Cc1ccccc1)C(=O)N1CCC[C@H]1C(=O)N[C@@H](CCC(=O)O)C(=O)N[C@H](C(=O)N[C@@H](Cc1ccccc1)C(=O)NCC(=O)O)C(C)C)C(C)C [NENLLRFFVAPFPEVFG] (H-NENLLRFFVAPFPEVFG-OH; N-terminus and C-terminus assumed) | – |
| 4.82 | 2.92 | 3.35 | 3.22 | CC(C)C[C@H](NC(=O)[C@H](CC(C)C)NC(=O)[C@@H]1CCCN1C(=O)[C@H](CC(C)C)NC(=O)[C@@H]1CCCN1C(=O)[C@H](CC(C)C)NC(=O)[C@H](Cc1c[nH]cn1)NC(=O)[C@H](CC(C)C)NC(=O)[C@@H](N)CC(N)=O)C(=O)O [NLHLPLPLL] (H-NLHLPLPLL-OH; N-terminus and C-terminus assumed) | – |
| 3.76 | 3.60 | 3.82 | 3.52 | CC(C)C[C@H](NC(=O)[C@H](CC(C)C)NC(=O)[C@@H]1CCCN1C(=O)[C@H](CC(C)C)NC(=O)[C@@H]1CCCN1C(=O)[C@H](CC(C)C)NC(=O)[C@H](Cc1c[nH]cn1)NC(=O)[C@H](CC(C)C)NC(=O)[C@H](CC(N)=O)NC(=O)[C@H](CCC(=O)O)NC(=O)[C@@H](N)C(C)C)C(=O)O [VENLHLPLPLL] (H-VENLHLPLPLL-OH; N-terminus and C-terminus assumed) | – |
| – | – | – | – | CNC(=O)[C@@H](NC(=O)[C@H](CC(C)C)[C@H](O)C(=O)NO)C(C)(C)C [marimastat] | IC50 (MMPs): micromolar range |
| – | – | – | – | c1cnc2c(c1)ccc1cccnc12 [o-phenantroline] | MMP inhibition (in words) (MMP): complete MMP inhibition |
